Measured values reported in the NIST ThermoML archive (doi:10.1021/je030117d).

Key:
[1] = refractive index (Na D-line) (dimensionless); conditions: 298.15 K; 101.33 kPa; Liquid; Standard Abbe refractometry
[2] = Liquid; for mass density: 298.15 K, 101.33 kPa, Vibrating tube method; for Normal boiling temperature: Ebulliometric method (Recirculating still)
[3] = xn = mol fraction of the nth substance listed; conditions: 298.15 K, 101.33 kPa, Liquid, Vibrating tube method
[4] = excess molar enthalpy (molar enthalpy of mixing); xn = mol fraction of the nth substance listed; conditions: 298.15 K, 101.33 kPa, Liquid, Calvet calorimetry

CCCC(=O)OC [methyl butanoate]
Conditions	Normal boiling temperature [°C]	mass density [kg/m3]	refractive index
[1]	–	–	1.3852
[2]	102.38	892.52	–

CCC(=O)OC [methyl propanoate]
Conditions	Normal boiling temperature [°C]	mass density [kg/m3]	refractive index
[1]	–	–	1.3745
[2]	78.50	908.59	–

CCC(=O)OC [methyl propanoate] + CCCCCCC
[3]
Conditions	mass density [kg/m3]
x1 = 0.064	687.65
x1 = 0.1117	694.35
x1 = 0.1561	700.97
x1 = 0.2628	718.15
x1 = 0.365	736.5
x1 = 0.4343	750.1
x1 = 0.5113	766.46
x1 = 0.5683	779.43
x1 = 0.6351	795.65
x1 = 0.7017	812.9
x1 = 0.7543	827.61
x1 = 0.8136	845.12
x1 = 0.8664	861.73
x1 = 0.903	873.85
x1 = 0.9689	896.98

COC=O [methyl methanoate]
Conditions	Normal boiling temperature [°C]	mass density [kg/m3]	refractive index
[1]	–	–	1.3412
[2]	31.64	966.18	–

CCCCC(=O)OC [methyl pentanoate] + CCCCCCC
[3]
Conditions	mass density [kg/m3]
x1 = 0.0172	682.12
x1 = 0.0613	689.72
x1 = 0.1404	703.9
x1 = 0.2074	716.09
x1 = 0.2867	731.09
x1 = 0.3552	744.33
x1 = 0.4135	755.77
x1 = 0.4931	771.88
x1 = 0.5619	786.14
x1 = 0.631	800.74
x1 = 0.7038	816.52
x1 = 0.7607	828.99
x1 = 0.8392	846.84
x1 = 0.9149	864.2
x1 = 0.9531	873.23
x1 = 0.9836	880.67

COC=O [methyl methanoate] + CCCCCCC
Conditions	excess molar enthalpy [kcal/mol]	mass density [kg/m3]
[3], x1 = 0.042	–	682.76
[3], x1 = 0.1206	–	689.96
[3], x1 = 0.2235	–	702.15
[3], x1 = 0.3614	–	723.34
[3], x1 = 0.4593	–	741.73
[3], x1 = 0.5364	–	759.27
[3], x1 = 0.6079	–	778.2
[3], x1 = 0.6651	–	795.64
[3], x1 = 0.7799	–	837.8
[3], x1 = 0.8321	–	861.36
[3], x1 = 0.8729	–	882.18
[3], x1 = 0.911	–	904.19
[3], x1 = 0.946	–	926.26
[3], x1 = 0.9736	–	945.92
[3], x1 = 0.9935	–	961.3
[4], x1 = 0.0673	0.123	–
[4], x1 = 0.1535	0.268	–
[4], x1 = 0.2499	0.403	–
[4], x1 = 0.3332	0.484	–
[4], x1 = 0.4008	0.52	–
[4], x1 = 0.4555	0.538	–
[4], x1 = 0.5004	0.546	–
[4], x1 = 0.5354	0.546	–
[4], x1 = 0.5709	0.545	–
[4], x1 = 0.6389	0.521	–
[4], x1 = 0.6745	0.506	–
[4], x1 = 0.7144	0.479	–
[4], x1 = 0.7527	0.452	–
[4], x1 = 0.794	0.412	–
[4], x1 = 0.8313	0.363	–
[4], x1 = 0.8721	0.303	–
[4], x1 = 0.9068	0.234	–
[4], x1 = 0.9426	0.157	–
[4], x1 = 0.973	0.0807	–

COC(C)=O [methyl ethanoate]
Conditions	Normal boiling temperature [°C]	mass density [kg/m3]	refractive index
[1]	–	–	1.3589
[2]	56.70	927.14	–

COC(C)=O [methyl ethanoate] + CCCCCCC
[3]
Conditions	mass density [kg/m3]
x1 = 0.0676	686.77
x1 = 0.1019	690.81
x1 = 0.1594	698.12
x1 = 0.2497	710.82
x1 = 0.3137	721.1
x1 = 0.4011	736.76
x1 = 0.4829	753.42
x1 = 0.5498	768.76
x1 = 0.6215	786.97
x1 = 0.6765	802.41
x1 = 0.7204	815.61
x1 = 0.7841	836.35
x1 = 0.8342	854.72
x1 = 0.8837	873.99
x1 = 0.9248	891.52
x1 = 0.9632	908.98

CCCC(=O)OC [methyl butanoate] + CCCCCCC
[3]
Conditions	mass density [kg/m3]
x1 = 0.0337	684.36
x1 = 0.0689	689.75
x1 = 0.102	694.93
x1 = 0.1531	703.25
x1 = 0.2487	719.6
x1 = 0.3261	733.58
x1 = 0.3824	744.29
x1 = 0.4586	759.5
x1 = 0.5333	775.25
x1 = 0.6085	791.88
x1 = 0.6618	804.18
x1 = 0.7161	817.1
x1 = 0.7869	834.67
x1 = 0.8394	848.24
x1 = 0.8882	861.22
x1 = 0.9255	871.41

CCCCC(=O)OC [methyl pentanoate]
Conditions	mass density [kg/m3]	refractive index
[1]	–	1.3947
[2]	884.58	–

[2]
Conditions	vapor or sublimation pressure [kPa]
364.75 K	32.01
365.85 K	33.33
366.98 K	34.67
368.03 K	36
369.05 K	37.33
370.1 K	38.66
371.03 K	40.01
371.97 K	41.33
372.92 K	42.66
373.81 K	43.99
374.7 K	45.33
375.56 K	46.64
376.4 K	48.01
377.18 K	49.33
378.01 K	50.64
378.82 K	51.98
379.59 K	53.33
380.33 K	54.67
381.1 K	56
381.82 K	57.33
382.51 K	58.67
383.29 K	59.99
383.95 K	61.33
384.62 K	62.68
385.25 K	63.99
385.95 K	65.33
386.57 K	66.66
387.18 K	67.99
387.84 K	69.32
388.44 K	70.66
389.08 K	71.99
389.65 K	73.33
390.24 K	74.65
390.82 K	76
391.39 K	77.3
391.94 K	78.66
392.5 K	79.99
393.04 K	81.33
393.61 K	82.66
394.12 K	83.98
394.65 K	85.33
395.16 K	86.66
395.69 K	88
396.2 K	89.33
396.7 K	90.67
397.18 K	91.98
397.67 K	93.35
398.2 K	94.67
398.65 K	95.99
399.15 K	97.32
399.59 K	98.66
400.07 K	99.99
400.54 K	101.32
401 K	102.66
401.45 K	104.01
401.91 K	105.33
402.3 K	106.66
402.75 K	107.99
403.2 K	109.32
403.62 K	110.58
404.06 K	111.98
404.45 K	113.3
404.88 K	114.66
405.31 K	115.99
405.71 K	117.32
406.12 K	118.69
406.52 K	119.98
406.91 K	121.36
407.3 K	122.64
407.7 K	124
408.08 K	125.32
408.49 K	126.67
408.85 K	127.99
409.23 K	129.32
409.62 K	130.64
409.98 K	132.01
410.35 K	133.34
410.71 K	134.64
411.07 K	135.99
411.44 K	137.33
411.8 K	138.63
412.15 K	139.99
412.49 K	141.33
412.85 K	142.67
413.21 K	143.99
413.55 K	145.32
413.89 K	146.65
414.22 K	148
414.55 K	149.34
414.91 K	150.65
415.23 K	151.99
415.57 K	153.32
415.87 K	154.61
416.21 K	155.97
416.55 K	157.29
416.87 K	158.66
417.18 K	159.97

CCCCCCC [heptane]
Conditions	Normal boiling temperature [°C]	mass density [kg/m3]	refractive index
[1]	–	–	1.3853
[2]	98.20	679.3	–
